Like-named read-outs stand apart in the source and are kept apart here.
Experiments:
[1] = tested on: T-Rex 293 cell line SC3 cells having increased expression of androgen receptor protein due to exposure to doxycycline; experiment: Cellular growth inhibition assay, T-Rex 293 SC3 cells with doxycycline (CellTiter-Glo, 72 hours); format: cell-based; conditions: T-Rex 293 SC3 cells with increased androgen receptor expression due to doxycycline (10 ng/mL)
Method: (§1) The following types of cells were prepared for this experiment: (i) a T-Rex 293 cell line having increased expression of androgen receptor protein due to exposure to doxycycline and (ii) a T-Rex 293 cell line lacking increased expression of androgen receptor protein. Ability of the test compounds to inhibit proliferation of the foregoing cell types was evaluated according to the procedures set forth below.
(§2) The doxycycline-inducible androgen receptor protein expressing cell line was established using the following protocol: T-Rex 293 cells were purchased from Invitrogen (Cat #R71007) and transfected using Lipofectamine 2000 with the wild-type androgen receptor protein sequence cloned into the pcDNA4/TO vector. Transfected cells were selected using 400 μg/mL Zeocin (Invitrogen Cat #R25001). Following selection, single clones were raised and maintained in Dulbecco's Modified Eagle Medium (DMEM) supplemented with 10% w/w Tetracycline-free fetal bovine serum (FBS) and 250 μg/mL Zeocin. Clones were analyzed for expression of androgen receptor protein in the presence and absence of 10 ng/mL doxycycline (Sigma Cat #D9891), and a single doxycycline-inducible clone (hereinafter “SC3”) was selected for use in downstream assays.
(§3) The SC3 cells were seeded on poly-D-lysine coated, black clear-bottom 384-well plates at 2500/well, in 25 μL Phenol Red Free Dulbecco's Modified Eagle Medium (DMEM) supplemented with 10% w/w charcoal-dextran treated fetal bovine serum (FBS) and 1% w/w pen-strep, with or without 10 ng/mL doxycycline. Pen-Strep is a commercially available mixture of penicillin G and streptomycin, which is used in mammalian cell culture media to prevent bacterial contamination. Phenol Red Free Dulbecco's Modified Eagle Medium (DMEM) supplemented with 10% w/w charcoal-dextran treated fetal bovine serum (FBS) and 1% w/w pen-strep, with or without 10 ng/mL doxycycline is herein referred to as Treatment Medium. Following seeding of cells in the plates, the plates were spun at 300×g for 30 seconds, then equilibrated to room temperature for 30 minutes, and then deposited in a humidified tissue culture incubator maintained at 37° C. with 5% CO2.
(§4) At 24 hours after seeding of the cells, dilutions of test compound were prepared in DMSO and dissolved in Treatment Medium, to achieve a final DMSO concentration of 0.5% w/w, thereby providing the Test Compound Solution. A 25 μL aliquot of the Test Compound Solution was added to cells in the well plates. An equal volume of a solution containing DMSO and Treatment Medium was used as a negative control. Following treatment of cells with Test Compound Solution or said equal volume of a solution containing DMSO and Treatment Medium, the plates were spun at 300×g for 30 seconds, and then left in an incubator for 72 hours.
(§5) At the end of the treatment duration, cell viability was quantified with CellTiter-Glo 2.0 reagent (Promega Cat #G9243). For this purpose, plates were equilibrated to room temperature for 30 minutes, and then 25 μL of CellTiter-Glo 2.0 reagent was added to cells in the plate wells. Plates were then agitated on a shaker for two minutes at 500 rpm and subsequently incubated at room temperature for 10 minutes. Following incubation, the plates were spun at 3000×g for 30 seconds, then sealed with an optical adhesive cover, and luminescence readings were measured with an EnVision Plate Reader.
(§6) Data was normalized using zero luminescence for baseline. A four-parameter non-linear regression curve fit was applied to dose-response data in GraphPad Prism data analysis software to determine the half-maximal growth inhibitory concentration (GI50) for each test compound.

VCaP cells = experiment: Cellular growth inhibition assay for VCaP cells (CellTiter-Glo, 72 hours); format: cell-based, human
Method: VCaP cells were purchased from American Type Cell Culture (ATCC Cat #CRL2876) and then seeded on poly-D-lysine coated, black clear-bottom 384-well plates at 5000/well in 25 μL Dulbecco's Modified Eagle Medium (DMEM) supplemented with 10% w/w Fetal bovine serum (FBS) and 1% w/w Pen-Strep. Pen-Strep is a commercially available mixture of penicillin G and streptomycin, which is used in mammalian cell culture media to prevent bacterial contamination. Dulbecco's Modified Eagle Medium (DMEM) supplemented with 10% w/w fetal bovine serum (FBS) and 1% w/w Pen-Strep is herein referred to as Treatment Medium. Following seeding of cells in the plates, the plates were spun at 300×g for 30 seconds, then equilibrated to room temperature for 30 minutes, and then deposited in a humidified tissue culture incubator maintained at 37° C. with 5% C0-2.
as §4, §5, §6

[2] = tested on: T-Rex 293 cell line SC3 cells lacking increased expression of androgen receptor protein; experiment: Cellular growth inhibition assay, T-Rex 293 SC3 cells without doxycycline (CellTiter-Glo, 72 hours); format: cell-based; conditions: T-Rex 293 cell line SC3 cells not exposed to doxycycline (lacking increased androgen receptor expression)
Method: as §1, §2, §3, §4, §5, §6

CCNC(=O)C[C@@H]1N=C(c2ccc(OCCCOC3CCN(c4ccc(C(=O)N[C@H]5CC[C@H](Oc6ccc(C#N)c(Cl)c6)CC5)nn4)CC3)cc2)c2c(sc(C)c2C)-n2c(C)nnc21 [I-14]
GI50 ([1]; 72 h): < 500 nM | GI50 (VCaP cells; Homo sapiens, VCaP, 72 h): < 500 nM | GI50 ([2]; 72 h): < 500 nM

CCNC(=O)C[C@@H]1N=C(c2ccc(CCCCCCOC3CCN(c4ccc(C(=O)N[C@H]5CC[C@H](Oc6ccc(C#N)c(Cl)c6)CC5)nn4)CC3)cc2)c2c(sc(C)c2C)-n2c(C)nnc21 [I-22]
GI50 ([1]; 72 h): < 500 nM | GI50 (VCaP cells; Homo sapiens, VCaP, 72 h): 500 to 1500 nM | GI50 ([2]; 72 h): 500 to 1500 nM

CCNC(=O)C[C@@H]1N=C(c2cccc(OCCOCCOC3CCN(c4ccc(C(=O)N[C@H]5CC[C@H](Oc6ccc(C#N)c(Cl)c6)CC5)nn4)CC3)c2)c2c(sc(C)c2C)-n2c(C)nnc21 [I-23]
GI50 ([1]; 72 h): < 500 nM | GI50 (VCaP cells; Homo sapiens, VCaP, 72 h): > 3000 nM | GI50 ([2]; 72 h): 1500 to 3000 nM

CCNC(=O)C[C@@H]1N=C(c2ccc(OC3CN(CC4CCN(c5ccc(C(=O)N[C@H]6CC[C@H](Oc7ccc(C#N)c(Cl)c7)CC6)nn5)CC4)C3)cc2)c2c(sc(C)c2C)-n2c(C)nnc21 [I-45]
GI50 ([1]; 72 h): < 500 nM | GI50 (VCaP cells; Homo sapiens, VCaP, 72 h): 500 to 1500 nM | GI50 ([2]; 72 h): 500 to 1500 nM

CCNC(=O)C[C@@H]1N=C(c2ccc(OC3CC(N(C)C4CCN(c5ccc(C(=O)N[C@H]6CC[C@H](Oc7ccc(C#N)c(Cl)c7)CC6)nn5)CC4)C3)cc2)c2c(sc(C)c2C)-n2c(C)nnc21 (stereo partly drawn) [I-46]
GI50 ([1]; 72 h): < 500 nM | GI50 (VCaP cells; Homo sapiens, VCaP, 72 h): < 500 nM | GI50 ([2]; 72 h): 500 to 1500 nM

CCNC(=O)C[C@@H]1N=C(c2ccc(N3CC(N(C4CC4)C4CN(c5ccc(C(=O)N[C@H]6CC[C@H](Oc7ccc(C#N)c(Cl)c7)CC6)nn5)C4)C3)cc2)c2c(sc(C)c2C)-n2c(C)nnc21 [I-56]
GI50 ([1]; 72 h): < 500 nM | GI50 (VCaP cells; Homo sapiens, VCaP, 72 h): < 500 nM | GI50 ([2]; 72 h): < 500 nM

CCNC(=O)C[C@@H]1N=C(c2ccc(N3CC(OC4CCN(c5ccc(C(=O)N[C@H]6CC[C@H](Oc7ccc(C#N)c(Cl)c7)CC6)nn5)CC4)C3)cc2)c2c(sc(C)c2C)-n2c(C)nnc21 [I-57]
GI50 ([1]; 72 h): < 500 nM | GI50 (VCaP cells; Homo sapiens, VCaP, 72 h): < 500 nM | GI50 ([2]; 72 h): < 500 nM

CCNC(=O)C[C@@H]1N=C(c2ccc(N3CCC(OC4CN(c5ccc(C(=O)N[C@H]6CC[C@H](Oc7ccc(C#N)c(Cl)c7)CC6)nn5)C4)CC3)cc2)c2c(sc(C)c2C)-n2c(C)nnc21 [I-58]
GI50 ([1]; 72 h): < 500 nM | GI50 (VCaP cells; Homo sapiens, VCaP, 72 h): < 500 nM | GI50 ([2]; 72 h): 500 to 1500 nM

CCNC(=O)C[C@@H]1N=C(c2ccc(N3CC(N(C)C4CN(c5ccc(C(=O)N[C@H]6CC[C@H](Oc7ccc(C#N)c(Cl)c7)CC6)nn5)C4)C3)cc2)c2c(sc(C)c2C)-n2c(C)nnc21 [I-61]
GI50 ([1]; 72 h): < 500 nM | GI50 (VCaP cells; Homo sapiens, VCaP, 72 h): < 500 nM | GI50 ([2]; 72 h): > 3000 nM

CCNC(=O)C[C@@H]1N=C(c2ccc(N3CC(N(C)C4CCN(c5ccc(C(=O)N[C@H]6CC[C@H](Oc7ccc(C#N)c(Cl)c7)CC6)nn5)CC4)C3)cc2)c2c(sc(C)c2C)-n2c(C)nnc21 [I-62]
GI50 ([1]; 72 h): < 500 nM | GI50 (VCaP cells; Homo sapiens, VCaP, 72 h): < 500 nM | GI50 ([2]; 72 h): > 3000 nM

CCNC(=O)C[C@@H]1N=C(c2ccc(N3CC(N(C(C)C)C4CN(c5ccc(C(=O)N[C@H]6CC[C@H](Oc7ccc(C#N)c(Cl)c7)CC6)nn5)C4)C3)cc2)c2c(sc(C)c2C)-n2c(C)nnc21 [I-64]
GI50 ([1]; 72 h): < 500 nM | GI50 (VCaP cells; Homo sapiens, VCaP, 72 h): < 500 nM | GI50 ([2]; 72 h): 500 to 1500 nM

CCNC(=O)C[C@@H]1N=C(c2ccc(N(C)C3CN(c4ccc(C(=O)N[C@H]5CC[C@H](Oc6ccc(C#N)c(Cl)c6)CC5)nn4)C3)cc2)c2c(sc(C)c2C)-n2c(C)nnc21 [I-65]
GI50 ([1]; 72 h): < 500 nM | GI50 (VCaP cells; Homo sapiens, VCaP, 72 h): 500 to 1500 nM | GI50 ([2]; 72 h): 500 to 1500 nM

CCNC(=O)C[C@@H]1N=C(c2ccc(N3CC(CC4CN(c5ccc(C(=O)N[C@H]6CC[C@H](Oc7ccc(C#N)c(Cl)c7)CC6)nn5)C4)C3)cc2)c2c(sc(C)c2C)-n2c(C)nnc21 [I-66]
GI50 ([1]; 72 h): < 500 nM | GI50 (VCaP cells; Homo sapiens, VCaP, 72 h): < 500 nM | GI50 ([2]; 72 h): 500 to 1500 nM

CCNC(=O)C[C@@H]1N=C(c2ccc(N(C)C3CC(OC4CCN(c5ncc(C(=O)N[C@H]6CC[C@H](Oc7ccc(C#N)c(Cl)c7)CC6)cn5)CC4)C3)cc2)c2c(sc(C)c2C)-n2c(C)nnc21 (stereo partly drawn) [I-69]
GI50 ([1]; 72 h): < 500 nM | GI50 (VCaP cells; Homo sapiens, VCaP, 72 h): < 500 nM | GI50 ([2]; 72 h): 500 to 1500 nM

CCNC(=O)C[C@@H]1N=C(c2ccc(N3CC(OC4CN(c5ccc(C(=O)N[C@H]6CC[C@H](Oc7ccc(C#N)c(Cl)c7)CC6)nn5)C4)C3)cc2)c2c(sc(C)c2C)-n2c(C)nnc21 [I-70]
GI50 ([1]; 72 h): < 500 nM | GI50 (VCaP cells; Homo sapiens, VCaP, 72 h): < 500 nM | GI50 ([2]; 72 h): 500 to 1500 nM

Cc1sc2c(c1C)C(c1ccc(OC3CC4(CCN(c5ccc(C(=O)N[C@H]6CC[C@H](Oc7ccc(C#N)c(Cl)c7)CC6)nn5)CC4)C3)nc1)=NC1(CC1)c1nnc(C)n1-2 [I-443]
GI50 ([1]; 72 h): < 500 nM | GI50 (VCaP cells; Homo sapiens, VCaP, 72 h): < 500 nM | GI50 ([2]; 72 h): > 3000 nM

Cc1sc2c(c1C)C(c1ccc(CC3CC4(CCN(c5ccc(C(=O)N[C@H]6CC[C@H](Oc7ccc(C#N)c(Cl)c7)CC6)nn5)CC4)C3)cc1)=NC1(CC1)c1nnc(C)n1-2 [I-444]
GI50 ([1]; 72 h): < 500 nM | GI50 (VCaP cells; Homo sapiens, VCaP, 72 h): < 500 nM | GI50 ([2]; 72 h): > 3000 nM

Cc1sc2c(c1C)C(c1ccc(OCC3CC4(CCCN(c5ccc(C(=O)N[C@H]6CC[C@H](Oc7ccc(C#N)c(Cl)c7)CC6)nn5)C4)C3)cc1)=NCc1nnc(C)n1-2 (stereo partly drawn) [I-446]
GI50 [1]: < 500 nM | GI50 (VCaP cells): < 500 nM | GI50 ([2]; 72 h): > 3000 nM

Cc1sc2c(c1C)C(c1ccc(OCC3CC4(CCCN(c5ccc(C(=O)N[C@H]6CC[C@H](Oc7ccc(C#N)c(Cl)c7)CC6)nn5)C4)C3)cc1)=NCc1nnc(C)n1-2 (stereo partly drawn) [I-447]
GI50 [1]: < 500 nM | GI50 (VCaP cells): > 3000 nM | GI50 [2]: > 3000 nM

Cc1sc2c(c1C)C(c1ccc(N3CCC4(CCCN(c5ccc(C(=O)N[C@H]6CC[C@H](Oc7ccc(C#N)c(Cl)c7)CC6)nn5)C4)CC3)nc1)=NC1(CC1)c1nnc(C)n1-2 [I-448]
GI50 ([1]; 72 h): < 500 nM | GI50 (VCaP cells; Homo sapiens, VCaP, 72 h): 1500 to 3000 nM | GI50 ([2]; 72 h): > 3000 nM

Cc1sc2c(c1C)C(c1ccc(N3CCC4(CC3)CCN(c3ccc(C(=O)N[C@H]5CC[C@H](Oc6ccc(C#N)c(Cl)c6)CC5)nn3)C4)nc1)=NCc1nnc(C)n1-2 [I-449]
GI50 ([1]; 72 h): < 500 nM | GI50 (VCaP cells; Homo sapiens, VCaP, 72 h): > 3000 nM | GI50 ([2]; 72 h): > 3000 nM

C#Cc1ccc(O[C@H]2CC[C@H](NC(=O)c3ccc(N4CCC(C5CN(c6ccc(C7=NC8(CC8)c8nnc(C)n8-c8sc(C)c(C)c87)cc6)C5)CC4)nn3)CC2)cc1Cl [I-450]
GI50 ([1]; 72 h): < 500 nM | GI50 (VCaP cells; Homo sapiens, VCaP, 72 h): < 500 nM | GI50 ([2]; 72 h): > 3000 nM
